Source: paper PMC11601558, “SLC6A19 inhibition facilitates urinary neutral amino acid excretion and lowers plasma phenylalanine” (JCI Insight, 2024)
“And” between values parts separate entries of the source, which are not always exact repeats. Equal values may be shown once.

Test system: T1, SLC6A8
T1 construct: V5; expressed in transfected cells; host or cells: Flp-In T-Rex 293 cells (Thermo Fisher), tetracycline-induced
Experiment: SLC6A8 creatine transport assay
Type: cell-based, human
Conditions: for SLC6A8 transport (Fig S2 curve point): technical replicates
Experimental: Supplementary Materials and Methods
Flp-In T-Rex 293 cells (Thermo Fisher) were engineered to induciblyexpress either V5-tagged human SLC1A5, SLC6A8 or SLC7A5 co-expressed with myc-DDK-tagged SLC3A2. Cells expressing SLC 1A5 or SLC6A8 were maintained in either DMEM or DMEM/F12 media supplemented with 10% FBS, 100 U/mL penicillin, 100 μg/mL streptomycin, 200 μg/mL hygromycin, and 10 μg/mL blasticidin. For cells expressing SLC7A5/SLC3A2, the media was additionally supplemented with 300 μg/mL geneticin. All cell lines were maintained at 37°C and 5% CO2. For transport experiments, all cell lines were plated in poly-D-lysine-coated 96-well plates at a density of 35,000 cells/well. One day after plating, expression of SLC1A5, SLC6A8 or SLC7A5 was induced by adding tetracycline at a concentration of 1 μg/mL. Cells were induced for 24 h prior to transport assays. […]
SLC6A8 creatine transport assay
Following a 24 h induction with tetracycline, cells were washed with PBS before JNT -517 was added in 8-point concentration-response diluted in DMEM. 3-guanidinopropionic acid was used as a positive control (33)at a concentrationof 1 mM and 0.5% DMSO was used as a negative control. Cells were incubated in a cell culture incubator for 30 minutes at 37°C and 5% CO 2 before 15 mM D3-labeled creatine (CDN Isotopes) was added as a transport substrate. After a 15 min incubation at 37°C and 5% CO2, cells were washed once with PBS. Cells were lysed in H2O with 500 nM D5-labeled creatine (CDN isotopes) as an internal standard for 1 h at 37°C.
Following lysis, a standard curve of dilution of D3-creatine was added to the last row of each plate. Plates were centrifuged for 5 min and supernatant was diluted 1:2 in H 2O. Sample desalting was performed on a high throughput Agilent RapidFire-365. From the analytical injection plate, approximately 40 μL of sample was desalted through an Agilent RapidFire Cartridge Graphitic Carbon Type D (G9206A) using water with 0.1% ammo nium hydroxide as the loading mobile phase A for 3000 milliseconds at a flow rate of 1.5 mL/min. The sample was then eluted from the cartridge using 80% acetonitrile containing 0.1% ammonium hydroxide for […]
An Agilent Q -ToF 6545 was […]
used as the analyzing mass spectrometer via electrospray ionization. Capillary voltage was set to 3 kV, with a gas temperature of 350°C. Nitrogen drying gas was applied at 12 L/min with a pressure of 40 psi, and sheath gas was set to 375°C with a flow of 12 L/min. All data were collected with a positive ion polarity and stored as centroid data. Agilent MassHunter QToF was […]
used as the integration software for measuring area under the peak for both D3 -creatine and D5-creatine as the internal standard. A linear regression was used from a standard curve of D3 - creatine to calculate absolute concentration from peak area. […]
Microbeta2 microplate counter (PerkinElmer). […]

NC(=O)N1CCC[C@@H](N(C(=O)NCc2ccc(OC(F)(F)F)cc2F)C2CC2)C1 [JNT-517]
SLC6A8 transport (Fig S2 curve point) (0.0160037 uM): 97.4 and 85.6
SLC6A8 transport (Fig S2 curve point) (0.048011 uM): 94 and 85
SLC6A8 transport (Fig S2 curve point) (0.144033 uM): 99.7 and 86.6
SLC6A8 transport (Fig S2 curve point) (0.432099 uM): 93.6 and 86.7
SLC6A8 transport (Fig S2 curve point) (1.2963 uM): 93.8 and 90.6
SLC6A8 transport (Fig S2 curve point) (3.88889 uM): 97.6 and 89.5
SLC6A8 transport (Fig S2 curve point) (11.6667 uM): 90.1 and 92.7
SLC6A8 transport (Fig S2 curve point) (35 uM): 95.9 and 86.1
inhibition of SLC6A8 (concentrations up to 35 μM): did not inhibit
